Measurements as given in patent publication US10800776B2, “Fluorine-containing triazolopyridine, and manufacturing method, pharmaceutical composition, and application thereof” (SHANGHAI INSTITUTE OF MATERIA MEDICA, CHINESE ACADEMY OF …, priority 2016, dated 2020).

Experiments:
hERG potassium channel = hERG potassium channel (Homo sapiens (Human), UniProt Q12809); assay: hERG potassium channel toxicity assay (hERG patch clamp); assay type: cell-based; conditions: for IC50: hERG patch clamp; for inhibition at 40 µM: at maximum concentration 40 μM
hERG potassium channel, sequence (Q12809 whole entry): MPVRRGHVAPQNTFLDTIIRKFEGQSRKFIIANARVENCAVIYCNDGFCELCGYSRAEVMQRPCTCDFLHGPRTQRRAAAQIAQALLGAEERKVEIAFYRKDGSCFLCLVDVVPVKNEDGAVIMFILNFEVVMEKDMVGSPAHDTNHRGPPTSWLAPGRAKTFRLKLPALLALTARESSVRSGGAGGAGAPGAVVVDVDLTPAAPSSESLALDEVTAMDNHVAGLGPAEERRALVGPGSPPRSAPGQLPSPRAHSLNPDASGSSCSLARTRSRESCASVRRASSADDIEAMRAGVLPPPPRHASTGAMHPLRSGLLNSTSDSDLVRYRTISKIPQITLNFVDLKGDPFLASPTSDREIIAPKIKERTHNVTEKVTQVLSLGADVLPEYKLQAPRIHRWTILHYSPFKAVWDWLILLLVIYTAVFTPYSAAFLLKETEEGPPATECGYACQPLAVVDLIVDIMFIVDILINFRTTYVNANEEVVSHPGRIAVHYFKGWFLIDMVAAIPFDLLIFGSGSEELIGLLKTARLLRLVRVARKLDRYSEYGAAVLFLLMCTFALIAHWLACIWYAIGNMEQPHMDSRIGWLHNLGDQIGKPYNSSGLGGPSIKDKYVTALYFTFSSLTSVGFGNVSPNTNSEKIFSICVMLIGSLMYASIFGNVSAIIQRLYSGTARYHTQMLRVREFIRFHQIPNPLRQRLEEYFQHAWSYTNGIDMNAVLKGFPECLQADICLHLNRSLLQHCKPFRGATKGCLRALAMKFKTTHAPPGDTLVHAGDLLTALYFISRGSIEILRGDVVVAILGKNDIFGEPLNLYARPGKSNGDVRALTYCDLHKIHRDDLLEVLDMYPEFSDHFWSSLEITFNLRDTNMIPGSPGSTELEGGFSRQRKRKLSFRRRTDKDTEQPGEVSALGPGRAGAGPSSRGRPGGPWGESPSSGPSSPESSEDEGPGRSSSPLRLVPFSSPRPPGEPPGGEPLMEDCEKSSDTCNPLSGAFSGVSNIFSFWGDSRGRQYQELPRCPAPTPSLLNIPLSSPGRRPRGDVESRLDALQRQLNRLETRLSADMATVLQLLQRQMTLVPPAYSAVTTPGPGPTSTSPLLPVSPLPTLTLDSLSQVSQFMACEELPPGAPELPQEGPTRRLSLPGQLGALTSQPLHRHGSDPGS
Experimental: Experimental method: hERG patch clamp detection method
Experimental procedure: Compound preparation: the stock solution of a compound was diluted with extracellular fluid, 2 μL of the compound stock solution was added to 998 μL extracellular fluid, and then serially diluted 5 times in an extracellular fluid containing 0.2% DMSO to obtain the final concentration to be tested.

mGluR2 = mGluR2 (Homo sapiens (Human), UniProt Q14416); assay: In vitro activity test for mGluR2 (HDB Fluo-8 calcium fluorescence, HEK/mGluR2 cell line); assay type: cell-based
mGluR2, sequence (Q14416 19-872): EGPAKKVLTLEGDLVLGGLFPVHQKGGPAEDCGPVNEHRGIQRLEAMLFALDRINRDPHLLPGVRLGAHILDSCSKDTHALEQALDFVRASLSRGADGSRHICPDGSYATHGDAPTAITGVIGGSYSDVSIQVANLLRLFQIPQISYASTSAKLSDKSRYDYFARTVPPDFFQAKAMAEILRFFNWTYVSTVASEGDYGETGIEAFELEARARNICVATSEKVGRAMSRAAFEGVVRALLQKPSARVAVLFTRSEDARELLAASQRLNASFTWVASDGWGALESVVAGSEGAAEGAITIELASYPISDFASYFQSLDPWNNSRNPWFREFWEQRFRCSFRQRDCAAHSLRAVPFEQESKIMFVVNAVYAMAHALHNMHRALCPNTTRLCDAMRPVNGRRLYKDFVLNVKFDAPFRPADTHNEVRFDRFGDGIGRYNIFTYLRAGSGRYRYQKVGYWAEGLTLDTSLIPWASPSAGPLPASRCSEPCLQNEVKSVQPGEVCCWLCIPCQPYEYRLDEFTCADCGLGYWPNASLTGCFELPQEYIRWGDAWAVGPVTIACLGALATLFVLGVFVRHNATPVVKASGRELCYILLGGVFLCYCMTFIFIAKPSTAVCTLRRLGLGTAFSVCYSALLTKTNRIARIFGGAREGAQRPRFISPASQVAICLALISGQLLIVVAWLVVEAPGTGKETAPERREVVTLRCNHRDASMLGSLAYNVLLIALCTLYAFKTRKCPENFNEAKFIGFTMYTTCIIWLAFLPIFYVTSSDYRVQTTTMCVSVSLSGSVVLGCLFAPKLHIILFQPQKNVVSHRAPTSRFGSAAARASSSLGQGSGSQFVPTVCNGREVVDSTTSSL
From the text: Experimental materials: HEK/mGluR2 cell line (human […] transfected HEK cell line), DMEM (FBS) medium, positive control LY487379 (purchased from sigma; CAS: to 352317-17-1)
Experimental instrument: FLIPR Tetra real-time fluorescence imaging analysis system
Experimental method: HDB Fluo-8 calcium fluorescence detection method
Experimental principle: HDB Fluo-8 calcium ion fluorescence detection method is a fast, simple and reliable fluorescence detection method of intracellular calcium concentration changes. The Fluo 8-AM fluorescent dye is an acetyl methyl ester derivative of Fluo 8 which can easily penetrate into the cell membrane by culture. The fluorescent dye in the cell will be hydrolyzed by intracellular esterase, the resulting Fluo 8 as a polar molecule, cannot easily pass through the lipid bimolecular membrane, and will be retained in the cell, and combine with calcium (Ca^2+) to produce fluoresces.
Cells expressing GPCR receptor protein (mGluR2) were first calibrated with a calcium ion sensitive fluorescent probe and then stimulated with the compound. After stimulation, the receptor activates the calcium ion mobilization, and the fluorescent probe captures the calcium ion to induce the fluorescence signal. The signal can be read by a fluoroscopy plate. The fluorescent plate reader contains a sample addition for compound addition, thus enabling the change of the fluorescence value of the compound be read in real time.

[1] = human, hERG, read-out: Inhibition rate (%)

SMILES | EC50 (mGluR2) | inhibition at 3 µM (hERG potassium channel; human, hERG, positive compound, maximum test concentration 3 μM, read-out: Inhibition rate (%)) | IC50 (hERG potassium channel) | inhibition at 40 µM (hERG potassium channel; [1])
COc1cc(N)c(Cl)cc1C(=O)NC1CCN(CCCOc2ccc(F)cc2)CC1OC (centres unmarked) [Cisapride, reference compound] |  | 96.6% |  | 
Fc1ccc(-c2ccn3c(CC4CC4(F)F)nnc3c2)cc1 (centres unmarked) [Compound 13, 3-((2,2-difluorocyclopropyl)methyl)-7-(4-fluorophenyl)-[1,2,4]triazole [4,3-a]pyridine] | 381 nM |  | 31900 nM | 52.8%
CC(C)(O)c1ccc(-c2ccn3c(CC4CC4(F)F)nnc3c2)cc1 (centres unmarked) [Compound 21, 2-(4-(3-((2,2-difluorocyclopropyl)methyl)-[1,2,4]triazole[4,3-a]pyridin-7-yl)phenyl)propan-2-ol] | 226 nM |  | 31900 nM | 52.8%
Cc1cc(F)ccc1-c1ccn2c(CC3CC3(F)F)nnc2c1 (centres unmarked) [Compound 26, 3-((2,2-difluorocyclopropyl)methyl)-7-(4-fluoro-2-methylphenyl)-[1,2,4] triazole[4,3-a]pyridine] | 781 nM |  | > 40000 nM | 49.4%
Cc1cc(-c2ccn3c(CC4CC4(F)F)nnc3c2)ccc1F (centres unmarked) [Compound 27, 3-((2,2-difluorocyclopropyl)methyl)-7-(4-fluoro-3-methylphenyl)-[1,2,4] triazole[4,3-a]pyridine] | 868 nM |  | > 40000 nM | 49.9%
FC1(F)CC1Cc1nnc2cc(-c3cccc4c3OCC4)ccn12 (centres unmarked) [Compound 32, 3-((2,2-difluorocyclopropyl)methyl)-7-(2,3-benzodihydrofuran-7-yl)-[1,2,4]triazole[4,3-a]pyridine] | 825 nM |  | > 40000 nM | 51%
COc1ccccc1Oc1ccc(N(Cc2cccnc2)S(=O)(=O)CC(F)(F)F)cc1 [LY487379, reference compound] | 230 nM |  |  | 

The remaining compounds from weak to strong by EC50 (mGluR2), led by results:

EC50 (mGluR2) | SMILES | inhibition at 3 µM (hERG potassium channel; human, hERG, positive compound, maximum test concentration 3 μM, read-out: Inhibition rate (%)) | IC50 (hERG potassium channel) | inhibition at 40 µM (hERG potassium channel; [1])
849 nM | COc1ccc(-c2ccn3c(CC4CC4(F)F)nnc3c2)cc1F (centres unmarked) [Compound 23, 3-((2,2-difluorocyclopropyl)methyl)-7-(3-fluoro-4-methoxyphenyl)-[1,2,4] triazole[4,3-a]pyridine] |  | > 40000 nM | 46%
704 nM | Fc1cccc(-c2ccn3c(CC4CC4(F)F)nnc3c2)c1 (centres unmarked) [Compound 11, 3-((2,2-Difluorocyclopropyl)methyl)-7-(3-fluorophenyl)-[1,2,4]triazole [4,3-a]pyridine] |  | > 40000 nM | 45.9%
612 nM | FC1(F)CC1Cc1nnc2cc(-c3cccc4cccnc34)ccn12 (centres unmarked) [Compound 34, 8-(3-((2,2-difluorocyclopropyl)methyl)-[1,2,4]triazole[4,3-a]pyridin-7-yl)quinoline] |  | > 40000 nM | 36%
541 nM | COC(=O)c1ccc(-c2ccn3c(CC4CC4(F)F)nnc3c2)c(F)c1 (centres unmarked) [Compound 29, Methyl 4-(3-((2,2-difluorocyclopropyl)methyl)-[1,2,4]triazolo[4,3-a]pyridin-7-yl)-3-fluorobenzonate] |  | 17300 nM | 62.4%
368 nM | FC1(F)CC1Cc1nnc2cc(-c3ccc4c(c3)CCO4)ccn12 (centres unmarked) [Compound 31, 3-((2,2-difluorocyclopropyl)methyl)-7-(2,3-benzodihydrofuran-5-yl)-[1,2,4]triazole[4,3-a]pyridine] |  | > 40000 nM | 48.1%
143 nM | Cc1cccc(-c2ccn3c(CC4CC4(F)F)nnc3c2)c1 (centres unmarked) [Compound 10, 3-((2,2-difluorocyclopropyl)methyl)-7-(m-tolyl)-[1,2,4]triazole [4,3-a]pyridine] |  | > 40000 nM | 38.1%
130 nM | Cc1cccc(-c2ccn3c(CC4CC4(F)F)nnc3c2Cl)c1 (centres unmarked) [Compound 36, 8-chloro-3-((2,2-difluorocyclopropyl)methyl)-7-(m-tolyl)-[1,2,4] triazole[4,3-a]pyridine] |  | > 40000 nM | 48.9%
